Test results: US9012439B2, “Use of electrophilic compounds for inducing platelet production or maintaining platelet function” (University of Rochester, priority 2007, dated 2015)

How the values were obtained:
Meg-01 cells [1] = assay: Meg-01 morphology (phalloidin f-actin staining, transmission electron microscopy); format: cell-based, human; settings: 10 μM
Procedure: Cells were fixed and permeabilized with 0.1% triton-100 for 1 h at room temperature (RT). Subsequently, cells were blocked with 1% bovin serum albumin (BSA) in PBS-Tween 20 (0.1%) for 1 h at RT then stained with phalloidin-Alexa Fluor 488 (Invitrogen, 1:200) at RT for 2 h. Cells were mounted and visualized using an Olympus BX51 light microscope (Olympus, Melville, N.Y.).
Cells were fixed for 4 h in 2.5% glutaraldehyde in 0.1 M sodium cacodylate buffer. Post-fixation cells were placed in 1% osmium tetroxide in phosphate buffer, dehydrated in ethanol, embedded in EPON/Araldite epoxy resin and analyzed on a Hitachi H-7100 electron microscope.

[2] = test system: primary human megakaryocytes; assay: Reactive oxygen species production in primary human megakaryocytes; format: cell-based; settings: 1 h and 6 h
Procedure: Human CD34+ cord blood cells were obtained from the National Disease Research Interchange (NDRI, Philadelphia, Pa.). Cells were plated at 2.5×10^5 cells per well in a 12-well plate and cultured in serum-free medium as previously described (Zeuner et al., “Chemotherapy-induced Thrombocytopenia Derives from the Selective Death of Megakaryocyte Progenitors and Can Be Rescued by Stem Cell Factor,” Cancer Res 67:4767-4773 (2007), which is hereby incorporated by reference in its entirety) and supplemented with 100 ng/mL of rhTPO. After 14 days in culture, megakaryocytes were identified by staining with a CD61-FITC antibody and analyzed on a BD Biosciences FACSCalibur flow cytometer. Data were analyzed using FlowJo software (Treestar, Ashland, Oreg.). Cell images were captured using an inverted microscope (Olympus IX81). Ten μM carboxy-H2DCFDA was added to cells for 20 min at RT. The cells were washed and immediately analyzed by flow cytometry. Five μM of MitoSOX Red dye in HBSS containing Mg^2+ and Ca^2+ was added to the cells for 15 min at 37° C. The cells were washed in HBSS and analyzed by flow cytometry.

[3] = test system: mouse bone marrow culture-derived platelets; assay: Function of mouse bone marrow culture-derived platelets (collagen response, spreading on fibrinogen); format: cell-based, mouse (C57BL/6)
Procedure: Platelets were isolated from the Meg-01 cells and human blood as described above. Both normal human platelets and Meg-01-derived platelets were stained with annexin V-FITC then treated with 10 μg/ml of collagen for 15 min. Cells were analyzed for collagen-induced annexin V binding and change in size and shape by flow cytometry. Platelets were isolated from primary human megakaryocytes and primary mouse megakaryocytes as described above. Primary human platelets were stained with CD41-FITC and primary mouse platelets were stained with CD61-PE then treated with 10 μg/mL of collagen. Cells were analyzed for collagen-induced CD61/CD41 upregulation and change in size and shape using flow cytometry.
Coverslips were coated with 100 μg/mL of fibrinogen for 1 h and blocked with 0.5 mg/mL BSA for 1 h. Platelets were added to the fibrinogen-coated coverslips in Tyrode's buffer and fixed with glutaraldehyde, post-fixed with 1% osmium tetroxide, and dehydrated. Platelets were then coated with a gold/palladium film. Images were acquired using the Zeiss-Leo 982 FE-SEM (scanning electron microscope).

Meg-01 cells [4] = assay: Reactive oxygen species production in Meg-01 cells (carboxy-H2DCFDA, MitoSOX Red); format: cell-based, human; settings: for percentage of Meg-01 cells that produce mitochondrial superoxide (MitoSOX Red): 10 μM
Procedure: Ten μM carboxy-H2DCFDA was added to cells for 20 min at RT. The cells were washed and immediately analyzed by flow cytometry. Five μM of MitoSOX Red dye in HBSS containing Mg^2+ and Ca^2+ was added to the cells for 15 min at 37° C. The cells were washed in HBSS and analyzed by flow cytometry.

[5] = test system: primary mouse megakaryocytes; assay: Platelet production from cultured mouse bone marrow megakaryocytes; format: cell-based, mouse (C57BL/6)
Procedure: Bone marrow was isolated from the femora of male C57BL/6 mice (Jackson Laboratories, Bar Harbor, Me.) and plated at a concentration of 1×10^6 cells per well in 12-well plates in IMDM (Iscove's Modified Dulbecco's Media, Invitrogen) with 20% BIT 9500 (BSA, insulin, transferrin) and supplemented with 100 ng/mL of rhTPO. Cells were cultured for 5 days, following which 15d-PGJ2 (10 μM) was added to the culture medium for 24 h. On the sixth day, cells were examined by phase-contrast microscopy using an inverted microscope (Olympus IX81) and images were captured using SPOT RT software (New Hyde Park, N.Y.). Megakaryocytes were identified by preincubating with anti-mouse CD16/32 (FcγR-blocking antibody) and then incubating with PE-conjugated hamster anti-mouse CD41 antibody.
Platelets were isolated from megakaryocytes by centrifugation at 150 xg for 10 min. Supernatants underwent sequential centrifugation (500 xg for 10 min and 1000×g for 10 min). The remaining platelet pellet was fixed then permeabilized with a CD61 or CD41 antibody. 7-AAD (BD Pharmingen) was added for 10 min before analyzing the cells by flow cytometry. […]

In the case of `CCCCCC=CC=C1C(=O)C=C[C@@H]1CC=CCCCC(=O)O` [15d-PGJ2, 15-deoxy-Δ^12,14 prostaglandin J2], the “morphological changes by f-actin (phalloidin) staining” value (Meg-01 cells [1]; within 1-2 h) is reported as “Morphological changes, characteristic of megakaryopoiesis”, the “structural characteristics by transmission electron microscopy” value (Meg-01 cells [1]; within 24 h) is reported as “structural characteristics consistent with differentiating cells” and the “percentage of ROS positive cells, Mitosox Red staining” value [2] is reported as “increase in the percentage of ROS positive cells”. For the same compound, the “percentage of ROS positive cells, carboxy-H2DCFDA staining” value [2] was “increase in the percentage of ROS positive cells”, the “platelet spreading on fibrinogen” value ([3]; mouse bone marrow culture-derived platelets, fibrinogen coated slide) was “spread in response to fibrinogen” and the “geometric mean fluorescence intensity of surface CD41, after collagen treatment” value ([3]; platelets from mouse bone marrow cultures treated with 15d-PGJ2, collagen 10 μg/mL, 15 min) was 20. The “geometric mean fluorescence intensity of surface CD41, before collagen” value ([3]; platelets from mouse bone marrow cultures treated with 15d-PGJ2, no collagen) was 9, the “percentage of Meg-01 cells that produce mitochondrial superoxide (MitoSOX Red)” value (Meg-01 cells [4]; 1 h) was 43% and the “percentage of Meg-01 cells that produce mitochondrial superoxide (MitoSOX Red)” value (Meg-01 cells [4]; 6 h) was 31%. For the same compound, the “percentage of Meg-01 cells that express ROS (carboxy-H2DCFDA)” value (Meg-01 cells [4]; 1 h) was 91%, the “percentage of Meg-01 cells that express ROS (carboxy-H2DCFDA)” value (Meg-01 cells [4]; 6 h) was 97% and the “increase in percentage of CD61+ platelets in culture” value ([5]; mouse bone marrow cultured 5 days with rhTPO, then 10 μM for 24 h) was roughly 14%. The megakaryocyte surface morphology ([5]; mouse megakaryocytes, 10 μM, 24 h, microscopy) was “induced the appearance of ruffled edges on the megakaryocytes”.
